Patent US20240400521A1, “QUINAZOLINE COMPOUND, COMPOSITION, AND APPLICATION THEREOF” (BEIJING SCITECH-MQ PHARMACEUTICALS LIMITED, priority 2021, published 2024)
Where two headings read alike, the source gives them in different places.

Legend:
[1] = Pharmacokinetics in SD rats after single oral and intravenous administration; type: in vivo; conditions: rat; for concentration at 0 hr: time point 0 hr; for concentration at 0.25 hr: time point 0.25 hr; for concentration at 0.5 hr: time point 0.5 hr; for concentration at 1 hr: time point 1 hr; for concentration at 2 hr: time point 2 hr; for concentration at 4 hr: time point 4 hr; for concentration at 7 hr: time point 7 hr
Description: (§1) In this assay, the pharmacokinetic characteristics and ability to penetrate the blood-brain barrier of the compounds of the present application were assayed after administration of some of the compounds of the present application to SD rats by single oral administration and intravenous injection.
(§2) • 1. Intravenous (IV) injection group: an appropriate amount of the assay compound was weighed, and completely dissolved in an appropriate volume of vehicle (DMSO/Solutol/H2O=5/10/85 V/V/V with 2 times mole of HCl). The mixture was stirred, vortexed and/or sonicated. Once a solution was obtained, the vehicle was gradually added to a final volume to reach the target concentration. The solution was vortexed, and sonicated to obtain a homogeneous solution. The solution was filtered through a 0.22 μm PVDF membrane. • 2. Oral (PO) group: an appropriate amount of the assay compound was weighed, and completely dissolved in an appropriate volume of vehicle (DMSO/Solutol/H2O=5/10/85 V/V/V with 2 times mole of HCl). The mixture was stirred, vortexed and/or sonicated. Once a solution was obtained, the vehicle was gradually added to a final volume to reach the target concentration. The solution was vortexed, and sonicated to obtain a homogeneous solution. (iii) Administration and Sampling of Rats
(§3) Meanwhile, the IV group was not fasted and the PO group was fasted overnight (>12 hrs) and given food 2 hrs after drug administration. All animals had free access to water. The dosing regimen and pharmacokinetic sampling regimen are given in Table 6 and Table 7 below, respectively.
(§4) Rats were administered according to the above regimen, and blood and brain tissue samples were collected and processed at predetermined time points (collection and processing were performed according to conventional methods in the art).
(§5) Brains were weighed and homogenized by adding 4-fold homogenizing solution (acetonitrile/water=1/1). Six times volume of acetonitrile was added respectively to the whole blood samples and brain homogenate. The mixture was vortexed for 1 min and then centrifuged at 4° C., 4500 rpm for 15 min. The supernatant was diluted 2-fold with ultra-pure water, and the samples were analyzed by LC/MS.
Pharmacokinetic parameters were calculated using WinNonlin software. The following pharmacokinetic parameters were calculated if appropriate plasma drug concentration-time data were available: CL (clearance); Vd (apparent volume of distribution); T1/2 (elimination half-life time); Cmax (peak concentration); Tmax (time to peak); AUC (area under plasma drug concentration-time curve); MRT (mean retention time); F % (bioavailability).

[2] = Ability to penetrate the blood-brain barrier: brain and whole blood concentration in SD rats; type: in vivo; conditions: rat
Description: as §1, §2, §3, §4, §5

Ba/F3-EGFR-VIII cells = Ba/F3-EGFR-VIII cells (Homo sapiens, UniProt P00533, DELINS30-297G, cells depend on it); assay: Inhibition of cell proliferation, CTG method, Ba/F3-EGFR-VIII; type: cell-based; conditions: 72 hours, read-out: Ba/F3 EGFRvIII IC50
Text: (§6) The present application examined the in vitro anti-proliferative activity of the compounds of the present disclosure against in vitro cultured HCC-827, Ba/F3-EGFR-VIII and Ba/F3 EGFR D770_N771insSVD cell lines by CTG method.
(§7) Reagents and consumables: RPMI1640 (ThermoFisher, Cat. No. C11875500BT); DMEM (ThermoFisher, C11995500BT); fetal bovine serum (Hyclone, Cat. No. SV30087.03); 0.25% trypsin-EDTA (ThermoFisher, Cat. No. 25200072); penicillin-streptomycin (Hyclone, Cat. No. SV30010); DMSO (Life Science, Cat. No. 0231-500ML); CTG assay kit (Promega, Cat. No. G9243); 96-well plate (Corning, Cat. No. 3599); multifunctional plate reader (Perkin Elmer, Cat. No. Envision)
(§8) Cell lines: HCC-827 (from ATCC), Ba/F3-EGFR-VIII and Ba/F3 EGFR D770_N771insSVD (all from KYinno Biotechnology (Beijing) Co., Ltd.); all of the above cells were cultured with RPMI1640 medium containing 10% fetal bovine serum, 100 U/mL penicillin, and 100 μg/mL streptomycin in the culture process, and HCC-827 was cultured with DMEM medium containing 10% fetal bovine serum, 100 U/mL penicillin, and 100 μg/mL streptomycin.
(§9) • 1. The assay compound was dissolved with DMSO to form a stock solution and a gradient dilution was performed, followed by dilution with the corresponding medium to obtain a solution with 5-fold working concentration. • 2. Cells in logarithmic growth phase were adjusted to specific cell densities by dilution with culture medium, and 80 μL of cell suspension was added to a 96-well plate, such that plating densities of cells of HCC-827, Ba/F3-EGFR-VIII and Ba/F3 EGFR D770_N771insSVD were all 3000 cells/well. The cells of Ba/F3-EGFR-VIII and Ba/F3 EGFR D770_N771insSVD were used directly in the next step (treatment with compound), whereas the HCC-827 needed to be cultured overnight in a 37° C., 5% carbon dioxide gas incubator to adhere to the wall, and then treated with compounds. • 3. 20 μL of compound solution was added to each well of the 96-well plate that had been inoculated with cells. The highest concentration of the assayed compound was 10 μM, 4-fold serial dilution, a total of 9 concentrations, and duplicate wells. A control group without compound was also set up. • 4. The cells were cultured for another 72 hours, and then cell viability was detected by CTG assay kit. Signal values were read with a multifunctional plate reader (Perkin Elmer). GraphPad Prism software was used to create a dose-response curve and IC50 was calculated.

HCC-827 cells = assay: Inhibition of cell proliferation, CTG method, HCC-827; type: cell-based; conditions: Homo sapiens, HCC827, 72 hours
Text: as §6, §7, §8, §9

[3] = target: Ba/F3 EGFR D770_N771insSVD cells (Homo sapiens, UniProt P00533, DUP768-770, cells depend on it); assay: Inhibition of cell proliferation, CTG method, Ba/F3 EGFR D770_N771insSVD; type: cell-based; conditions: 72 hours, read-out: Ba/F3 EGFR D770_N771insSVD IC50
Text: as §6, §7, §8, §9

[4] = SD, plasma, IV 3 mg/kg, read-out: Plasma drug concentration
[5] = SD, plasma, PO 10 mg/kg, read-out: Plasma drug concentration

Ba/F3-EGFR-VIII cells, sequence (P00533 with tags, fused parts or gaps DELINS30-297G): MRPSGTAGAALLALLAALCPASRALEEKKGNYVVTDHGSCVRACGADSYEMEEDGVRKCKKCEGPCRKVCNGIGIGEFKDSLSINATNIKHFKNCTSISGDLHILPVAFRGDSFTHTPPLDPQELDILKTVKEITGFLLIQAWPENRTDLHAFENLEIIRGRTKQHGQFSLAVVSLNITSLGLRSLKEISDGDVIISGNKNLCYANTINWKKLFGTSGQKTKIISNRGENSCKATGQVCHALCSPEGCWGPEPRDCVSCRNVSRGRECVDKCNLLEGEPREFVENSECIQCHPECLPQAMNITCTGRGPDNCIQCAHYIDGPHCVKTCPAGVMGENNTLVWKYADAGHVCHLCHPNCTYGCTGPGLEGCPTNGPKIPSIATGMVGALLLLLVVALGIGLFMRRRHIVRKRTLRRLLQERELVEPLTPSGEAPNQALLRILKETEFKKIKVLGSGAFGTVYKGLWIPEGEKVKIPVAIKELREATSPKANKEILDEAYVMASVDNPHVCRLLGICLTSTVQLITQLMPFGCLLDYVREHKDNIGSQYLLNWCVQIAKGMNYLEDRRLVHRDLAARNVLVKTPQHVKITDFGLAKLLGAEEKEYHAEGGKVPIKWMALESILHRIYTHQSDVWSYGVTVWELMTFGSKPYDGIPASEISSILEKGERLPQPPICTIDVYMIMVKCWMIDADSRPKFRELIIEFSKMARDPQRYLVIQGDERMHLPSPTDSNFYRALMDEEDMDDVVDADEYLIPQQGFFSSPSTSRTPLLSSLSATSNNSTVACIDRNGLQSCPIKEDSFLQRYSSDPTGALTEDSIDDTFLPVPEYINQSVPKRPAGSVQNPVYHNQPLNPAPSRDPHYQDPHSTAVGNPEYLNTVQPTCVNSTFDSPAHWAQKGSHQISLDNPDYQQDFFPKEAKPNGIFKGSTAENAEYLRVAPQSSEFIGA
Ba/F3 EGFR D770_N771insSVD cells, sequence (P00533 with tags, fused parts or gaps DUP768-770): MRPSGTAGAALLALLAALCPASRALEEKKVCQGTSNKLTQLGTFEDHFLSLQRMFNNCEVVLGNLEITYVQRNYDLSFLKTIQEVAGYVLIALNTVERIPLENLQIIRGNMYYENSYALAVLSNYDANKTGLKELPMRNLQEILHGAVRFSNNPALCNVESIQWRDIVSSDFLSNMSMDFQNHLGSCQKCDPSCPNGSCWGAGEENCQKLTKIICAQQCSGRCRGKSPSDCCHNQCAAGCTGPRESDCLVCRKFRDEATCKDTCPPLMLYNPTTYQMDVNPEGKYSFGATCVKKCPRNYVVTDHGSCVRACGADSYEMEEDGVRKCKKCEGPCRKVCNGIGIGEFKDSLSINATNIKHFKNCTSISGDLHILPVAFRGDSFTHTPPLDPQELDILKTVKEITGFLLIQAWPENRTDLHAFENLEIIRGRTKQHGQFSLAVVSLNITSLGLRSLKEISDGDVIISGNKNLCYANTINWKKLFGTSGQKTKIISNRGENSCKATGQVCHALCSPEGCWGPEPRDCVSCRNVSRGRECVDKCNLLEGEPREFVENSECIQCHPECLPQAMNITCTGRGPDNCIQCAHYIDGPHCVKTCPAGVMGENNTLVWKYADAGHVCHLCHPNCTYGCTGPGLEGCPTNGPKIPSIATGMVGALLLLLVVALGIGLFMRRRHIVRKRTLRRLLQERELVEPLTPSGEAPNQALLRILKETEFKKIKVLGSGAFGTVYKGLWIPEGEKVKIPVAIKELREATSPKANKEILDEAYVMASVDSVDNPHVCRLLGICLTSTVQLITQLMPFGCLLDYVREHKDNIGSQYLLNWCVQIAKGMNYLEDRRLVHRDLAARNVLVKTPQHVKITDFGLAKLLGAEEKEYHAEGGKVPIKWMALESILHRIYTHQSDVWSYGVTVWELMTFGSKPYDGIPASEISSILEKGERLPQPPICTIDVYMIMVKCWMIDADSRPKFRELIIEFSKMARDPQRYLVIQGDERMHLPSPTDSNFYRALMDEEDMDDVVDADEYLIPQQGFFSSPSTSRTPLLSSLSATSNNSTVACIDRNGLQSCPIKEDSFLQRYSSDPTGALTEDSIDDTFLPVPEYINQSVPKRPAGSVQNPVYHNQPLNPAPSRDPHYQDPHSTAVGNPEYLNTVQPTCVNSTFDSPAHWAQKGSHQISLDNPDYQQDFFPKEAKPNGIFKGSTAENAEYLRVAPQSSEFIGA

What does the source list for `COc1c(NC(=O)/C=C/CN(C)C)ccc2ncnc(Nc3cccc(Cl)c3F)c12` [Example 1, (E)-N-(4-((3-chloro-2-fluorophenyl)amino)-5-methoxyquinazolin-6-yl)-4-(dimethylamino)but-2-enamide]?
AUC(0-inf) ([1]; SD, plasma, IV 3 mg/kg): 724 ± 105 ng·h/mL; AUC(0-t) ([1]; SD, plasma, IV 3 mg/kg): 709 ± 96 ng·h/mL; Vd ([1]; SD, plasma, IV 3 mg/kg): 8.76 ± 0.67 L/kg; half-life ([1]; SD, plasma, IV 3 mg/kg): 1.45 ± 0.09 h; concentration at 0 hr [1, 4]: 0 ng/mL; concentration at 0.083 hr ([1]; SD, plasma, IV 3 mg/kg, time point 0.083 hr, read-out: Plasma drug concentration): 888 ± 106 ng/mL; concentration at 0.25 hr [1, 4]: 494 ± 121 ng/mL; concentration at 0.5 hr [1, 4]: 365 ± 48 ng/mL; concentration at 1 hr [1, 4]: 175 ± 23 ng/mL; concentration at 2 hr [1, 4]: 78.2 ± 28.7 ng/mL; concentration at 4 hr [1, 4]: 18.8 ± 8.7 ng/mL; concentration at 7 hr [1, 4]: 7.05 ± 3.77 ng/mL; AUC(0-inf) ([1]; SD, plasma, PO 10 mg/kg): 1780 ± 178 ng·h/mL; AUC(0-t) ([1]; SD, plasma, PO 10 mg/kg): 1730 ± 170 ng·h/mL; Cmax ([1]; SD, plasma, PO 10 mg/kg): 281 ± 73 ng/mL; Tmax ([1]; SD, plasma, PO 10 mg/kg): 1 h; bioavailability ([1]; SD, plasma, PO 10 mg/kg): 73.6 ± 7.4%; half-life ([1]; SD, plasma, PO 10 mg/kg): 3.17 ± 1.22 h; concentration at 0 hr [1, 5]: 0 ng/mL; concentration at 0.25 hr [1, 5]: 83.2 ± 29.9 ng/mL; concentration at 0.5 hr [1, 5]: 227 ± 58 ng/mL; concentration at 1 hr [1, 5]: 281 ± 73 ng/mL; concentration at 2 hr [1, 5]: 249 ± 74 ng/mL; concentration at 4 hr [1, 5]: 77.7 ± 7.3 ng/mL; concentration at 7 hr [1, 5]: 72.6 ± 25.5 ng/mL; concentration at 24 hr ([1]; SD, plasma, PO 10 mg/kg, time point 24 hr, read-out: Plasma drug concentration): 14.2 ± 19.7 ng/mL; Cl_obs ([1]; IV 3 mg/kg): 70.0 ± 9.5 mL/min/kg; Kp at 2 hours ([2]; SD, brain/blood, PO 10 mg/kg, 2 hours after administration, read-out: Brain/blood ratio): 3.06; concentration at 2 hours ([2]; SD, brain, PO 10 mg/kg, 2 hours after administration, read-out: Brain concentration): 1470 ng/g; concentration at 2 hours ([2]; SD, plasma, PO 10 mg/kg, 2 hours after administration, read-out: Plasma drug concentration): 480 ng/mL; ability to penetrate the blood-brain barrier (in words) [2]: excellent ability to penetrate the blood-brain barrier; GI50 (Ba/F3-EGFR-VIII cells): ≤ 5 nM; IC50 (HCC-827 cells): ≤ 5 nM; GI50 [3]: 50 to 500 nM
